This passage reports GI50 and TGI results from PubChem BioAssay (NCI).

Test systems include ACHN renal; HL-60(TB) leukemia; KM12 colon; MOLT-4 leukemia; NCI/ADR-RES ovarian; RPMI-8226 leukemia; SF-295 CNS; SK-MEL-28 melanoma; SK-MEL-5 melanoma; U251 CNS.
Holding throughout (experiment): NCI tumour cell line growth inhibition, 48 h

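How tested: cells in 96-well plates exposed to compound for 48 hours at five concentrations. The concentration for 50% growth inhibition is given as GI50. TGI: concentration producing complete growth inhibition.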

In the case of `COc1cc(-n2cnc(-c3ccc(Cl)cc3)c2)cc(OC)c1OC`, the GI50 is 19.8 µM in the assay on ACHN renal; 15.3 µM in the assay on HL-60(TB) leukemia; over 100 µM in the assay with KM12 colon; 19.2 µM in the assay on MOLT-4 leukemia; 16.9 µM with NCI/ADR-RES ovarian; 14.7 µM in the assay on RPMI-8226 leukemia. The GI50 is 17.6 µM in the assay on SF-295 CNS, 15.5 µM in the assay on SK-MEL-28 melanoma, 67.8 µM in the assay with SK-MEL-5 melanoma and 22.2 µM with U251 CNS. Further, the TGI was 57.3 µM in the assay on ACHN renal; 35.4 µM in the assay on HL-60(TB) leukemia; over 100 µM in the assay on KM12 colon; 39.9 µM in the assay on MOLT-4 leukemia; 45.1 µM in the assay with NCI/ADR-RES ovarian; 32.2 µM in the assay with RPMI-8226 leukemia. In addition, the TGI in the assay with SF-295 CNS was 38.1 µM; in the assay on SK-MEL-28 melanoma it was 29.7 µM; in the assay on SK-MEL-5 melanoma, over 100 µM; with U251 CNS, 57.8 µM.
For the compound `Cc1nn(-c2ccccc2)c2nc3c(nc12)C1=NCCN1C(c1ccc(Cl)cc1)N3` (centres undefined), the GI50 in the assay on ACHN renal is 3.62 µM; with HL-60(TB) leukemia it was 1.87 µM; in the assay with KM12 colon, 3.62 µM; in the assay on MOLT-4 leukemia it was 2.38 µM; in the assay with NCI/ADR-RES ovarian, 13.4 µM; with RPMI-8226 leukemia, 2.22 µM. The GI50 was 2.56 µM in the assay with SF-295 CNS, 1.78 µM with SK-MEL-28 melanoma, 1.57 µM in the assay on SK-MEL-5 melanoma and 2.21 µM with U251 CNS. Moreover, the TGI turned out to be 13.2 µM in the assay on ACHN renal; 4.4 µM in the assay on HL-60(TB) leukemia; 12.2 µM in the assay with KM12 colon; 6.01 µM with MOLT-4 leukemia; 32 µM in the assay with NCI/ADR-RES ovarian; 5.28 µM with RPMI-8226 leukemia. In addition, the TGI with SF-295 CNS was determined as 8.24 µM; in the assay with SK-MEL-28 melanoma it was 3.37 µM; in the assay on SK-MEL-5 melanoma, 3.12 µM; in the assay on U251 CNS it was 5.98 µM.
For `COC1=CC(c2ccc[nH]2)=N/C1=C\c1[nH]c(C)c(C(C)=O)c1C`, the GI50 is 0.67 µM in the assay on ACHN renal; 0.168 µM in the assay with HL-60(TB) leukemia; 0.262 µM with KM12 colon; 0.032 µM in the assay on MOLT-4 leukemia; 0.458 µM in the assay with NCI/ADR-RES ovarian; 0.329 µM with RPMI-8226 leukemia. Also, the GI50 in the assay with SF-295 CNS was 10 µM; with SK-MEL-28 melanoma, 2.46 µM; with SK-MEL-5 melanoma, 0.768 µM; in the assay with U251 CNS, 1.19 µM. Besides, the TGI in the assay with ACHN renal was over 55.8 µM; with KM12 colon, over 100 µM; with MOLT-4 leukemia it was over 100 µM; with NCI/ADR-RES ovarian, over 100 µM; in the assay with RPMI-8226 leukemia, 2.69 µM; in the assay with SF-295 CNS, over 100 µM. For the same compound, the TGI with SK-MEL-28 melanoma is over 100 µM; with SK-MEL-5 melanoma, 3.07 µM; with U251 CNS it was over 57.2 µM.
On to `O=C1NC(c2c(Cl)cccc2Cl)Nc2ccccc21` (centres undefined), for which the TGI with ACHN renal is over 100 µM; with HL-60(TB) leukemia, 46.9 µM; with KM12 colon it was 43.7 µM; in the assay on MOLT-4 leukemia it was over 100 µM; in the assay on NCI/ADR-RES ovarian, over 100 µM; in the assay on RPMI-8226 leukemia, over 100 µM. The TGI was over 100 µM with SF-295 CNS, over 100 µM with SK-MEL-28 melanoma, 72.7 µM in the assay with SK-MEL-5 melanoma and over 100 µM in the assay with U251 CNS.
As for `CCn1c(-c2nonc2N)nc2cncc(C(=O)NCCNC)c21`, the GI50 in the assay on ACHN renal was 11.2 µM; in the assay with HL-60(TB) leukemia, over 25 µM; in the assay with KM12 colon, over 25 µM; with MOLT-4 leukemia it was over 25 µM; in the assay on NCI/ADR-RES ovarian, 18.9 µM; with RPMI-8226 leukemia, over 25 µM. Also, the GI50 in the assay on SF-295 CNS is over 25 µM; in the assay on SK-MEL-28 melanoma, 12.9 µM; with SK-MEL-5 melanoma, over 16 µM; in the assay on U251 CNS, over 25 µM. Moreover, the TGI with ACHN renal, in the assay on HL-60(TB) leukemia, in the assay on KM12 colon, in the assay with MOLT-4 leukemia, in the assay with NCI/ADR-RES ovarian and with RPMI-8226 leukemia was over 25 µM each time. Also, the TGI in the assay with SF-295 CNS, in the assay with SK-MEL-28 melanoma, in the assay on SK-MEL-5 melanoma and in the assay on U251 CNS was over 25 µM each time.
For the compound `COc1cc(C2CC(c3ccccc3)=NN2C(C)=O)cc(OC)c1OC` (centres undefined), the GI50 was 5.88 µM in the assay with ACHN renal; 3.26 µM in the assay on HL-60(TB) leukemia; 1.42 µM with KM12 colon; 5.5 µM with MOLT-4 leukemia; 2.8 µM in the assay with NCI/ADR-RES ovarian; 2.56 µM in the assay with RPMI-8226 leukemia. Besides, the GI50 was 0.576 µM with SF-295 CNS, 6.48 µM with SK-MEL-28 melanoma, 2.87 µM in the assay on SK-MEL-5 melanoma and 3.93 µM in the assay with U251 CNS. For the same compound, the TGI in the assay with ACHN renal is over 100 µM; in the assay with HL-60(TB) leukemia, over 31.7 µM; in the assay with KM12 colon, over 100 µM; in the assay on MOLT-4 leukemia, over 100 µM; in the assay on NCI/ADR-RES ovarian it was over 26.1 µM; in the assay with RPMI-8226 leukemia it was over 27.7 µM. The TGI in the assay with SF-295 CNS is 4.15 µM; in the assay with SK-MEL-28 melanoma it was over 100 µM; in the assay on SK-MEL-5 melanoma, over 100 µM; in the assay on U251 CNS, over 100 µM.
Turning to `CC(C(=O)O)/C(=C\c1ccc2c(c1)OCO2)C(=O)O` (centres undefined), the TGI in the assay on ACHN renal was over 100 µM; in the assay with HL-60(TB) leukemia, 0.21 µM; in the assay on KM12 colon it was over 100 µM; with MOLT-4 leukemia it was over 21.9 µM; in the assay with NCI/ADR-RES ovarian, over 100 µM; in the assay on RPMI-8226 leukemia, over 100 µM. For the same compound, the TGI in the assay with SF-295 CNS, in the assay on SK-MEL-28 melanoma, in the assay on SK-MEL-5 melanoma and with U251 CNS was over 100 µM each time.
Take `CC1OC(n2c3ccccc3c3c4c(c5c6ccccc6[nH]c5c32)C(=O)N(CCN2CCOCC2)C4=O)CC(O)C1O` (centres undefined): the GI50 in the assay with ACHN renal was 1.51 µM; with HL-60(TB) leukemia, 2.28 µM; in the assay on KM12 colon it was 2.64 µM; with MOLT-4 leukemia it was 1.2 µM; in the assay on NCI/ADR-RES ovarian, 2.87 µM; in the assay on RPMI-8226 leukemia, 2.97 µM. Moreover, the GI50 was 1.61 µM in the assay with SF-295 CNS, 5.61 µM in the assay with SK-MEL-28 melanoma, 1.59 µM in the assay on SK-MEL-5 melanoma and 1.24 µM in the assay with U251 CNS. Also, the TGI in the assay with ACHN renal was found to be 6.74 µM; in the assay on HL-60(TB) leukemia, 13.1 µM; in the assay on KM12 colon it was 10.5 µM; in the assay on MOLT-4 leukemia it was 9.93 µM; in the assay on NCI/ADR-RES ovarian, 13.1 µM; with RPMI-8226 leukemia it was 20.7 µM. The TGI in the assay on SF-295 CNS is 6.23 µM; in the assay on SK-MEL-28 melanoma it was 13.8 µM; in the assay on SK-MEL-5 melanoma, 6.29 µM; with U251 CNS it was 7.19 µM.
